Test results reported in ChEMBL document CHEMBL1275557, “First countrywide survey of acquired metallo-beta-lactamases in gram-negative pathogens in Italy” (2008).
In brackets after ≈: the same amount, converted by molar mass.

How the values were obtained:
Type in all cases: functional
[1] = system: Pseudomonas aeruginosa; assay: Antibacterial activity against IMP-13 producing Pseudomonas aeruginosa clone C2 isolate NA-14X-12 by Etest method
[2] = system: Pseudomonas aeruginosa; assay: Antibacterial activity against VIM-1 producing Pseudomonas aeruginosa clone A2 isolate NA-14X-32 by Etest method
[3] = system: Pseudomonas aeruginosa; assay: Antibacterial activity against VIM-1 producing Pseudomonas aeruginosa clone D isolate VA-06X-69 by Etest method
[4] = system: Pseudomonas aeruginosa; assay: Antibacterial activity against VIM-1 producing Pseudomonas aeruginosa clone D3 isolate VA-06X-65 by Etest method
[5] = system: Pseudomonas aeruginosa; assay: Antibacterial activity against VIM-1 producing Pseudomonas aeruginosa clone D2 isolate VA-06X-16 by Etest method
[6] = system: Pseudomonas aeruginosa; assay: Antibacterial activity against VIM-1 producing Pseudomonas aeruginosa clone D2 isolate VA-06X-17 by Etest method
[7] = system: Pseudomonas aeruginosa; assay: Antibacterial activity against VIM-2 producing Pseudomonas aeruginosa clone B3 isolate PV-05X-02 by Etest method
[8] = system: Pseudomonas aeruginosa; assay: Antibacterial activity against metallo-beta-lactamase positive Pseudomonas aeruginosa assessed as percent susceptible isolates by Etest method
[9] = system: Pseudomonas aeruginosa; assay: Antibacterial activity against VIM-1 producing Pseudomonas aeruginosa clone A2 isolate NA-14X-21 by Etest method
[10] = system: Pseudomonas aeruginosa; assay: Antibacterial activity against IMP-13 producing Pseudomonas aeruginosa clone C2 isolate NA-14X-11 by Etest method
[11] = system: Pseudomonas aeruginosa; assay: Antibacterial activity against IMP-13 producing Pseudomonas aeruginosa clone C2 isolate NA-14X-02 by Etest method
[12] = system: Pseudomonas aeruginosa; assay: Antibacterial activity against VIM-1 producing Pseudomonas aeruginosa clone E isolate VA-06X-29 by Etest method
[13] = system: Pseudomonas putida; assay: Antibacterial activity against VIM-1 producing Pseudomonas putida isolate RM-11X-11 by Etest method
[14] = system: Pseudomonas aeruginosa; assay: Antibacterial activity against VIM-1 producing Pseudomonas aeruginosa clone A1 isolate FG-17X-14 by Etest method
[15] = system: Pseudomonas aeruginosa; assay: Antibacterial activity against IMP-13 producing Pseudomonas aeruginosa clone C1 isolate AV-13X-28 by Etest method
[16] = system: Pseudomonas aeruginosa; assay: Antibacterial activity against VIM-1 producing Pseudomonas aeruginosa clone A2 isolate NA-14X-26 by Etest method
[17] = system: Pseudomonas aeruginosa; assay: Antibacterial activity against VIM-1 producing Pseudomonas aeruginosa clone A3 isolate FG-17X-08 by Etest method
[18] = system: Enterobacter cloacae; assay: Antibacterial activity against VIM-1 producing Enterobacter cloacae isolate TO-16X-51 by Etest method
[19] = system: Pseudomonas aeruginosa; assay: Antibacterial activity against VIM-2 producing Pseudomonas aeruginosa clone B1 isolate SS-09X-45 by Etest method
[20] = system: Pseudomonas aeruginosa; assay: Antibacterial activity against VIM-2 producing Pseudomonas aeruginosa clone B3 isolate CR-04X-14 by Etest method
[21] = system: Pseudomonas aeruginosa; assay: Antibacterial activity against VIM-1 producing Pseudomonas aeruginosa clone A3 isolate NA-14X-34 by Etest method
[22] = system: Pseudomonas aeruginosa; assay: Antibacterial activity against VIM-1 producing Pseudomonas aeruginosa clone D1 isolate VA-06X-63 by Etest method
[23] = system: Pseudomonas aeruginosa; assay: Antibacterial activity against VIM-1 producing Pseudomonas aeruginosa clone D4 isolate VA-06X-47 by Etest method
[24] = system: Pseudomonas aeruginosa; assay: Antibacterial activity against VIM-2 producing Pseudomonas aeruginosa clone B2 isolate VA-06X-28 by Etest method
[25] = system: Pseudomonas aeruginosa; assay: Antibacterial activity against VIM-1 producing Pseudomonas aeruginosa clone F isolate RM-11X-09 by Etest method
[26] = system: Pseudomonas aeruginosa; assay: Antibacterial activity against IMP-13 producing Pseudomonas aeruginosa clone C2 isolate NA-14X-10 by Etest method
[27] = system: Pseudomonas aeruginosa; assay: Antibacterial activity against VIM-2 producing Pseudomonas aeruginosa clone B2 isolate VA-06X-20 by Etest method
[28] = system: Pseudomonas aeruginosa; assay: Antibacterial activity against VIM-1 producing Pseudomonas aeruginosa clone G isolate NA-14X-13 by Etest method
[29] = system: Pseudomonas aeruginosa; assay: Antibacterial activity against VIM-2 producing Pseudomonas aeruginosa clone B2 isolate VA-06X-38 by Etest method
[30] = system: Pseudomonas aeruginosa; assay: Antibacterial activity against VIM-2 producing Pseudomonas aeruginosa clone B3 isolate PV-05X-07 by Etest method
[31] = system: Pseudomonas aeruginosa; assay: Antibacterial activity against IMP-13 producing Pseudomonas aeruginosa clone C3 isolate PG-12X-03 by Etest method
[32] = system: Proteus mirabilis; assay: Antibacterial activity against nonreplicate Proteus mirabilis clinical isolate by Etest method
[33] = system: Klebsiella aerogenes; assay: Antibacterial activity against nonreplicate Enterobacter aerogenes clinical isolate by Etest method
[34] = system: Klebsiella pneumoniae; assay: Antibacterial activity against nonreplicate Klebsiella pneumoniae clinical isolate by Etest method
[35] = system: Pseudomonas aeruginosa; assay: Antibacterial activity against nonreplicate Pseudomonas aeruginosa clinical isolate by Etest method
[36] = Antibacterial activity against nonreplicate Burkholderia cepacia complex clinical isolate by Etest method
[37] = system: Acinetobacter baumannii; assay: Antibacterial activity against nonreplicate Acinetobacter baumannii clinical isolate by Etest method
[38] = system: Pseudomonas putida; assay: Antibacterial activity against nonreplicate Pseudomonas putida clinical isolate by Etest method
[39] = system: Enterobacter cloacae; assay: Antibacterial activity against nonreplicate Enterobacter cloacae clinical isolate by Etest method

| Molecule | MIC [1] | MIC [2] | MIC [3] | MIC [4] | MIC [5] | MIC [6] | MIC [7] | MIC [9] | MIC [10] | MIC [11] | MIC [12] | MIC [13] | MIC [14] | MIC [15] | MIC [16] | MIC [17] | MIC [18] | MIC [19] | MIC [20] | MIC [21] | other results |
| --- | --- | --- | --- | --- | --- | --- | --- | --- | --- | --- | --- | --- | --- | --- | --- | --- | --- | --- | --- | --- | --- |
| NCC[C@H](O)C(=O)N[C@@H]1C[C@H](N)[C@@H](O[C@H]2O[C@H](CN)[C@@H](O)[C@H](O)[C@H]2O)[C@H](O)[C@H]1O[C@H]1O[C@H](CO)[C@@H](O)[C@H](N)[C@H]1O [AMIKACIN] | 16 µg/mL (≈ 27.3 µM) | 24 µg/mL (≈ 41 µM) | 8 µg/mL (≈ 13.7 µM) | 8 µg/mL (≈ 13.7 µM) | 8 µg/mL (≈ 13.7 µM) | 8 µg/mL (≈ 13.7 µM) | > 128 µg/mL | 24 µg/mL (≈ 41 µM) | 16 µg/mL (≈ 27.3 µM) | 16 µg/mL (≈ 27.3 µM) | > 128 µg/mL | 1 µg/mL (≈ 1.71 µM) | 8 µg/mL (≈ 13.7 µM) | 8 µg/mL (≈ 13.7 µM) | 32 µg/mL (≈ 54.6 µM) | 16 µg/mL (≈ 27.3 µM) | 24 µg/mL (≈ 41 µM) | > 128 µg/mL | > 128 µg/mL | 24 µg/mL (≈ 41 µM) | Activity [8]: 50%; MIC [22]: 8 µg/mL (≈ 13.7 µM); MIC [23]: 8 µg/mL (≈ 13.7 µM); MIC [24]: > 128 µg/mL; MIC [25]: 8 µg/mL (≈ 13.7 µM); MIC [26]: 16 µg/mL (≈ 27.3 µM); MIC [27]: > 128 µg/mL; MIC [28]: > 128 µg/mL; MIC [29]: > 128 µg/mL; MIC [30]: > 128 µg/mL; MIC [31]: > 128 µg/mL |
| C[C@H]1[C@H](NC(=O)/C(=N\OC(C)(C)C(=O)O)c2csc(N)n2)C(=O)N1S(=O)(=O)O [AZTREONAM] | – | – | – | – | – | – | – | – | – | – | – | 8 µg/mL (≈ 18.4 µM) | – | – | – | – | – | – | – | – | Activity [8]: 75% |
| C[C@@H](O)[C@H]1C(=O)N2C(C(=O)O)=C(S[C@@H]3CN[C@H](C(=O)N(C)C)C3)[C@H](C)[C@H]12 [MEROPENEM] | > 32 µg/mL | > 32 µg/mL | > 32 µg/mL | > 32 µg/mL | > 32 µg/mL | > 32 µg/mL | 8 µg/mL (≈ 20.9 µM) | > 32 µg/mL | > 32 µg/mL | > 32 µg/mL | > 32 µg/mL | > 32 µg/mL | > 32 µg/mL | 8 µg/mL (≈ 20.9 µM) | > 32 µg/mL | > 32 µg/mL | 2 µg/mL (≈ 5.22 µM) | > 32 µg/mL | > 32 µg/mL | > 32 µg/mL | MIC [22]: > 32 µg/mL; MIC [23]: > 32 µg/mL; MIC [24]: > 32 µg/mL; MIC [25]: > 32 µg/mL; MIC [26]: > 32 µg/mL; MIC [27]: > 32 µg/mL; MIC [28]: > 32 µg/mL; MIC [29]: > 32 µg/mL; MIC [30]: 8 µg/mL (≈ 20.9 µM); MIC [31]: > 32 µg/mL |
| C[C@@H](O)[C@H]1C(=O)N2C(C(=O)O)=C(SCCNC=N)C[C@H]12 [IMIPENEM ANHYDROUS] | > 32 µg/mL | > 32 µg/mL | > 32 µg/mL | > 32 µg/mL | > 32 µg/mL | > 32 µg/mL | > 32 µg/mL | > 32 µg/mL | > 32 µg/mL | > 32 µg/mL | > 32 µg/mL | > 32 µg/mL | > 32 µg/mL | > 16 µg/mL | > 32 µg/mL | > 32 µg/mL | 4 µg/mL (≈ 13.4 µM) | > 32 µg/mL | > 32 µg/mL | > 32 µg/mL | MIC [32]: 8 µg/mL (≈ 26.7 µM); MIC [33]: 16 µg/mL (≈ 53.4 µM); MIC [34]: 2 µg/mL (≈ 6.68 µM); MIC [35]: 8 µg/mL (≈ 26.7 µM); MIC [36]: 8 µg/mL (≈ 26.7 µM); MIC [37]: 4 µg/mL (≈ 13.4 µM); MIC [22]: > 32 µg/mL; MIC [23]: > 32 µg/mL; MIC [24]: > 32 µg/mL; MIC [25]: > 32 µg/mL; MIC [26]: > 32 µg/mL; MIC [38]: 16 µg/mL (≈ 53.4 µM); MIC [27]: > 32 µg/mL; MIC [28]: > 32 µg/mL; MIC [39]: 4 µg/mL (≈ 13.4 µM); MIC [29]: > 32 µg/mL; MIC [30]: > 32 µg/mL; MIC [31]: > 32 µg/mL |
| GENTAMICIN | > 128 µg/mL | > 128 µg/mL | > 128 µg/mL | > 128 µg/mL | > 128 µg/mL | > 128 µg/mL | 8 µg/mL | > 128 µg/mL | > 128 µg/mL | > 128 µg/mL | > 128 µg/mL | 4 µg/mL | > 128 µg/mL | > 128 µg/mL | > 128 µg/mL | > 128 µg/mL | 2 µg/mL | > 128 µg/mL | 8 µg/mL | > 128 µg/mL | MIC [22]: > 128 µg/mL; MIC [23]: > 128 µg/mL; MIC [24]: 8 µg/mL; MIC [25]: > 128 µg/mL; MIC [26]: > 128 µg/mL; MIC [27]: 8 µg/mL; MIC [28]: > 128 µg/mL; MIC [29]: 8 µg/mL; MIC [30]: 8 µg/mL; MIC [31]: > 128 µg/mL |
